PMC6751662, “Pharmacological and functional similarities of the human neuropeptide Y system in C. elegans challenges phylogenetic views on the FLP/NPR system” (Cell Communication and Signaling : CCS, 2019)
Where two headings read alike, the source gives them in different places. Ends that are not written are not given here.

How the values were obtained:
[1] = molecular target: T1, NPR-5b (Caenorhabditis elegans, UniProt Q6F3C9); experiment: cAMP reporter gene assay, Gi/o (with forskolin), NPR-5b; assay type: cell-based, C. elegans; design: Emax: unit not given here; conditions: NPR-5b, transiently transfected HEK293 cells
T1 sequence (Q6F3C9 1-433): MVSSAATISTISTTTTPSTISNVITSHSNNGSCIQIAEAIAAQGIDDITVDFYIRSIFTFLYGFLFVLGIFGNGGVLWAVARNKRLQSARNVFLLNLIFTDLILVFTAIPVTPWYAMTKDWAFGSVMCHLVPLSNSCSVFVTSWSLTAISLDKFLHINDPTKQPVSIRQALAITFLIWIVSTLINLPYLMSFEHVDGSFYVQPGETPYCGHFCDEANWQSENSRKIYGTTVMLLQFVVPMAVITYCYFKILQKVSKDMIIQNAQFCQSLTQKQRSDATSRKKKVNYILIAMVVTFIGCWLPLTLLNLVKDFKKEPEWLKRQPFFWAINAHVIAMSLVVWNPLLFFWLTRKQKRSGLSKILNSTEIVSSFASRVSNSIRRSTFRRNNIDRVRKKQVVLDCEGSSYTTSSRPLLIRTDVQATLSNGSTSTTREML
Method: (§1) Activation of Gs and Gi/o was assessed with a cAMP reporter gene assay. HEK293 cells grown to 70–80% confluency in 6-well plates were transiently co-transfected with vectors encoding the receptor and the cAMP reporter gene plasmid pGL4.29 [luc2P/CRE/Hygro] (Promega; 4 μg total, 1:1 ratio) using Metafectene Pro (3 μl/μg DNA; Biontex) following the manufacturer’s instructions. 16 h post transfection, the cells were seeded into white 384-well plates at a density of 20,000 cells/well. On the next day, the medium was removed and the cells were stimulated with 20 μl of peptide solution (or forskolin as positive control) in serum-free DMEM for 4 h. For measuring Gi/o activity, the peptide solutions additionally contained 1 μM forskolin to elevate cellular cAMP levels. After incubation, the luciferase substrate OneGlo in lysis buffer (Promega) was added and the luminescence was measured in a microplate reader Tecan Spark (Tecan).
(§2) For in vitro activation, data is presented as mean ± SEM of at least three independent experiments conducted in technical triplicate. […] For the C. elegans NPRs, we considered the strongest response elicited by any of the peptides downstream of a particular receptor as the receptor’s maximal signal. This may or may not be the biological maximum that can be reached by the ‘true’ endogenous agonist. For the human receptors, the response to the established endogenous agonist reflected the maximal signal.

[2] = molecular target: T2, NPR-11 (Caenorhabditis elegans, UniProt Q18179); experiment: cAMP reporter gene assay, Gi/o (inhibition of forskolin-induced cAMP), NPR-11; assay type: cell-based, C. elegans; conditions: for Emax: HEK293, read-out: Emax ± SEM [%]
T2 construct: expressed in transfected cells; host or cells: HEK293, transient
T2 sequence (Q18179 1-402): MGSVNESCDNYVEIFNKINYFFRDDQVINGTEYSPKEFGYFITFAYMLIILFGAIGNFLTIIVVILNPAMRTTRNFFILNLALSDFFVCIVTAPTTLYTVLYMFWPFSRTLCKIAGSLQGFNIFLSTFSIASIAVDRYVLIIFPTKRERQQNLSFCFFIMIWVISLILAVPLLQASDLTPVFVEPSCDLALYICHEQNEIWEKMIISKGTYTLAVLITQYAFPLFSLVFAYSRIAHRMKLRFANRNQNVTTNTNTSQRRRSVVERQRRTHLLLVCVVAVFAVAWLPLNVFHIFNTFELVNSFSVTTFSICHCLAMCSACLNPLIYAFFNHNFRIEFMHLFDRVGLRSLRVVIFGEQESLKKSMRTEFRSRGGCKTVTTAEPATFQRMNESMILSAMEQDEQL
Method: as §1, with “(Tecan). Data were analyzed with GraphPad Prism 5.03 and are shown as fold of basal or fold of forskolin in case of Gαi/o activity.” for “(Tecan).”
as §2

[3] = Solubility of crude peptides in RP-HPLC purification solvents; assay type: physicochemical; conditions: H2O + 0.1% TFA / acetonitrile + 0.08% TFA (RP-HPLC purification conditions)
Method: C-terminally amidated peptides were synthesized in 15 μmol scale by solid-phase peptide synthesis following the Fmoc/tert-butyl strategy (reviewed in [18]) on Rink amide resin using an automated Syro II peptide synthesizer (MultiSynTech). Automated coupling reactions were performed as double couplings using 8 eq Nα-protected amino acid, activated in situ with equimolar amounts of Oxyma and […] in dimethylformamide (DMF) for 30 min. Automated Fmoc deprotection was carried out with 40% (v/v) piperidine in DMF for 3 min and 20% (v/v) piperidine in DMF for 10 min. Reactive side chains of amino acids were protected by tert-butyl (tBu for Tyr, Ser, Asp, Glu, Thr), trityl (Trt for Asn, Gln, His), 2,2,4,6,7-pentamethyldihydrobenzofuran-5-sulfonyl (Pbf for Arg) and tert-butyloxycarbonyl (Boc for Lys). Peptides were cleaved off the resin using trifluoroacetic acid (TFA)/H2O/triisopropylsilane (90/5/5, v/v/v) for 2.5 h at room temperature and precipitated in ice cold diethyl ether. All peptides were purified to > 95% purity by RP-HPLC (Shimadzu) using a Phenomenex Jupiter 10 μm Proteo 90 Å (C12) column. For most peptides, linear gradients of H2O + 0.1% trifluoroacetic acid (TFA) (eluent A) and acetonitrile (ACN) + 0.08% TFA (eluent B) were applied at a flow rate of 10 ml/minute. […] FLP-27, FLP-33, and FLP-34 were solubilized by ultrasonication at 50 °C for 10 min and subsequently purified under standard solvent conditions used pre-heated HPLC systems. […] Peptide identity was verified by matrix-assisted laser desorption/time of flight (MALDI-ToF; Ultraflex III MALDI-ToF/ToF, Bruker Daltonics) mass spectrometry, and peptide purity was evaluated with analytical RP-HPLC.

[4] = molecular target: T3, NPR-1 (Caenorhabditis elegans, UniProt Q18534); experiment: cAMP reporter gene assay, Gi/o (inhibition of forskolin-induced cAMP), NPR-1; assay type: cell-based, C. elegans; design: host or cells: HEK293; conditions: for Emax: HEK293, read-out: Emax ± SEM [%]
T3 sequence (Q18534 1-457): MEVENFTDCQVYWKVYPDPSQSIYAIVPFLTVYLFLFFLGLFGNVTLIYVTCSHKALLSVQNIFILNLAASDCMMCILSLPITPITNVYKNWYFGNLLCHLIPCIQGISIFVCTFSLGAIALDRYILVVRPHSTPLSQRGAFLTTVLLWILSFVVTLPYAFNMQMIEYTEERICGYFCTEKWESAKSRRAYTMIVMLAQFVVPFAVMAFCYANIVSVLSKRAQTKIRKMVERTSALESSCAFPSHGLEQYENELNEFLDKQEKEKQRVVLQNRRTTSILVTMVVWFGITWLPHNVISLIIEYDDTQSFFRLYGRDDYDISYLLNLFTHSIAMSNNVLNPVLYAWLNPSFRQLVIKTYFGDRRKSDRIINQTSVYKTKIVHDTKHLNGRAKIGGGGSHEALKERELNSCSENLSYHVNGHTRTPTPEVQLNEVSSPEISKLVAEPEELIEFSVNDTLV
Method: as §1, with “(Tecan). Data were analyzed with GraphPad Prism 5.03 and are shown as fold of basal or fold of forskolin in case of Gαi/o activity.” for “(Tecan).”
as §2

[5] = tested on: NPR-6; experiment: cAMP reporter gene assay, Gs (no forskolin), NPR-6; assay type: cell-based, C. elegans; conditions: 4 h, NPR-6-transfected HEK293, CRE-luciferase reporter, mean of >=3 independent experiments
Method: as §1, with “(Tecan). Data were analyzed with GraphPad Prism 5.03 and are shown as fold of basal or fold of forskolin in case of Gαi/o activity.” for “(Tecan).”
as §2

[6] = tested on: NPR-3; experiment: cAMP reporter gene assay, Gs (no forskolin), NPR-3; assay type: cell-based, C. elegans; conditions: 4 h, NPR-3-transfected HEK293, CRE-luciferase reporter, mean of >=3 independent experiments
Method: as §1, with “(Tecan). Data were analyzed with GraphPad Prism 5.03 and are shown as fold of basal or fold of forskolin in case of Gαi/o activity.” for “(Tecan).”
as §2

[7] = molecular target: T1, NPR-5b; experiment: cAMP reporter gene assay, Gs (no forskolin), NPR-5b; assay type: cell-based, C. elegans; conditions: 4 h, NPR-5b-transfected HEK293, CRE-luciferase reporter, mean of >=3 independent experiments
Method: as §1, with “(Tecan). Data were analyzed with GraphPad Prism 5.03 and are shown as fold of basal or fold of forskolin in case of Gαi/o activity.” for “(Tecan).”
as §2

[8] = molecular target: T4, NPR-4b (Caenorhabditis elegans, UniProt A0A078BTK0); experiment: cAMP reporter gene assay, Gs (no forskolin), NPR-4b; assay type: cell-based, C. elegans; conditions: 4 h, NPR-4b-transfected HEK293, CRE-luciferase reporter, mean of >=3 independent experiments
T4 sequence (A0A078BTK0 1-376): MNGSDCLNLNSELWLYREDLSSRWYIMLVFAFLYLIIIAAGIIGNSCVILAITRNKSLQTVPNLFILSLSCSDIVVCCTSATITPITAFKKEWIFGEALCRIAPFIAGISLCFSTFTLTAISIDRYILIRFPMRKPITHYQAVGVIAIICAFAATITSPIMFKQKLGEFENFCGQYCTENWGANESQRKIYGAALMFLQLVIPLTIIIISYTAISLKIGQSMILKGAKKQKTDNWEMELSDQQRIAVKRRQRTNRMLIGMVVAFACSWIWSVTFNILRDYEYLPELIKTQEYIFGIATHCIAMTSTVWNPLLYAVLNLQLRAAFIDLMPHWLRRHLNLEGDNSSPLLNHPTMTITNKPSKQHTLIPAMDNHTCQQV
Method: as §1, with “(Tecan). Data were analyzed with GraphPad Prism 5.03 and are shown as fold of basal or fold of forskolin in case of Gαi/o activity.” for “(Tecan).”
as §2

[9] = molecular target: T2, NPR-11; experiment: cAMP reporter gene assay, Gs (no forskolin), NPR-11; assay type: cell-based, C. elegans; conditions: 4 h, NPR-11-transfected HEK293, CRE-luciferase reporter, mean of >=3 independent experiments
Method: as §1, with “(Tecan). Data were analyzed with GraphPad Prism 5.03 and are shown as fold of basal or fold of forskolin in case of Gαi/o activity.” for “(Tecan).”
as §2

[10] = molecular target: T3, NPR-1; experiment: cAMP reporter gene assay, Gs (no forskolin), NPR-1; assay type: cell-based, C. elegans; design: host or cells: HEK293; conditions: 4 h, NPR-1-transfected HEK293, CRE-luciferase reporter, mean of >=3 independent experiments
Method: as §1, with “(Tecan). Data were analyzed with GraphPad Prism 5.03 and are shown as fold of basal or fold of forskolin in case of Gαi/o activity.” for “(Tecan).”
as §2

[11] = molecular target: T4, NPR-4b; experiment: cAMP reporter gene assay, Gi/o (inhibition of forskolin-induced cAMP), NPR-4b; assay type: cell-based, C. elegans
Method: as §1, §2

[12] = 1 µM forskolin (positive control)
[13] = 100 µM forskolin (positive control)

ADISTFASAINNAGRLRY-NH2 [FLP-34-1]
Emax ([1]; forskolin (1 µM) set to 1.00, increase of cAMP, mean ± SEM of at least three independent experiments, SEM): 6.7 ± 8.21 | EC50 ([1]; full concentration-response curve, with 1 µM forskolin, increase of cAMP, at least three independent experiments): 20100 nM | Emax ([2]; SEM): -0.62 ± 0.1% | EC50 ([2]; SEM): 20 nM | solubility of crude peptide [3]: partly insoluble | EC50 [4]: 578 nM | Emax ([4]; SEM): -0.65 ± 0.14%

ALNRDSLVASLNNAERLRF-NH2 [FLP-34-2]
EC50 ([2]; EC50 at NPR-11, full concentration-response curve, inhibition of 1 µM forskolin-induced cAMP, transfected HEK293 (Figure S1, Table S11)): 0.7 nM | Emax ([2]; SEM): -0.65 ± 0.14% | EC50 ([2]; SEM): 0.631 nM | solubility of crude peptide [3]: partly insoluble

C=C[C@@]1(C)CC(=O)[C@]2(O)[C@@]3(C)[C@@H](O)CCC(C)(C)[C@@H]3[C@H](O)[C@H](OC(C)=O)[C@@]2(C)O1 [forskolin, reference compound]
cAMP assay Gs, NPR-6 [5, 12]: 12.19 x-fold of basal | cAMP assay Gs, NPR-6 [5, 13]: 46.24 x-fold of basal | cAMP assay Gs, NPR-3 [6, 12]: 20.07 x-fold of basal | cAMP assay Gs, NPR-3 [6, 13]: 51.90 x-fold of basal | cAMP assay Gs, NPR-5b [7, 12]: 23.17 x-fold of basal | cAMP assay Gs, NPR-5b [7, 13]: 67.99 x-fold of basal | cAMP assay Gs, NPR-4b [8, 12]: 16.52 x-fold of basal | cAMP assay Gs, NPR-4b [8, 13]: 44.21 x-fold of basal | cAMP assay Gs, NPR-11 [9, 12]: 16.67 x-fold of basal | cAMP assay Gs, NPR-11 [9, 13]: 60.68 x-fold of basal | cAMP assay Gs, NPR-1 [10, 12]: 15.39 x-fold of basal | cAMP assay Gs, NPR-1 [10, 13]: 76.79 x-fold of basal

KHEYLRF-NH2 [FLP-14]
EC50 [11]: 2430 nM | Emax ([11]; NPR-4b, forskolin (1 µM) set to 1.00, lower values correspond to high Gi/o activity, transiently transfected HEK293 cells, mean ± SEM of at least three independent experiments, SEM): -0.77 ± 0.2% | EC50 [2]: 1890 nM | Emax ([2]; SEM): -0.86 ± 0.19% | Emax ([4]; SEM): -0.51 ± 0.13% | EC50 ([4]; SEM): 25.1 nM | Emax at NPR-1 ([4]; full concentration-response curve, inhibition of 1 µM forskolin-induced cAMP, transfected HEK293 (Figure S1)): 53 % of FLP-21 induced response
